Measured values reported in ChEMBL document CHEMBL2029327, “Synthetic menthyl α/β-(1→6)-diglucopyranosides-induced cell death in human leukemia cells is dependent on caspases” (Bioorg Med Chem Lett, 2012).
Active and inactive are the calls of the source. The calls are words filed in the database; no cut-off is given here.

Legend:
HL-60 [1] = assay: Induction of apoptosis in human HL60 cells assessed as increase in chromatin condensation at 10 uM after 24 hrs by Hoechst staining-based flow cytometric analysis; assay type: functional, cell-based
U-937 [2] = assay: Induction of apoptosis in human U937 cells assessed as […] hydrolysis of chromatin at 10 uM after 24 hrs by agarose gel electrophoretic analysis; assay type: functional, cell-based
HL-60 [3] = assay: Cytotoxicity against human HL60 cells assessed as reduction in cell number at 10 uM after 24 hrs by inverted phase-contrast microscopic analysis; assay type: functional, cell-based
MOLT-3 [4] = assay: Induction of apoptosis in human MOLT3 cells assessed as increase in chromatin condensation at 10 uM after 24 hrs by Hoechst staining-based flow cytometric analysis; assay type: functional, cell-based
MOLT-3 [5] = assay: Induction of apoptosis in human MOLT3 cells assessed as […] hydrolysis of chromatin at 10 uM after 24 hrs by agarose gel electrophoretic analysis; assay type: functional, cell-based
MOLT-3 [6] = assay: Cytotoxicity against human MOLT3 cells assessed as reduction in cell number at 10 uM after 24 hrs by inverted phase-contrast microscopic analysis; assay type: functional, cell-based
HL-60 [7] = assay: Induction of apoptosis in human HL60 cells assessed as […] hydrolysis of chromatin at 10 uM after 24 hrs by agarose gel electrophoretic analysis; assay type: functional, cell-based
MCF7 [8] = assay: Cytotoxicity against human MCF7 cells assessed as morphological changes at 10 uM after 24 hrs by inverted phase-contrast microscopic analysis; assay type: functional, cell-based
U-937 [9] = assay: Cytotoxicity against human U937 cells after 72 hrs by MTT assay; assay type: functional, cell-based; details: for IC50: U-937, 72 h
MOLT-3 [10] = assay: Induction of apoptosis in human MOLT3 cells assessed as increase in apoptotic cells at 10 uM after 24 hrs by propidium iodide staining-based flow cytometric analysis (reference value: 3.1 /- 0.7%); assay type: functional
U-937 [11] = assay: Cytotoxicity against human U937 cells assessed as morphological changes at 10 uM after 24 hrs by inverted phase-contrast microscopic analysis; assay type: functional, cell-based
MOLT-3 [12] = assay: Cytotoxicity against human MOLT3 cells after 72 hrs by MTT assay; assay type: functional, cell-based; details: for IC50: MOLT-3, 72 h
HL-60 [13] = assay: Cytotoxicity against human HL60 cells assessed as morphological changes at 10 uM after 24 hrs by inverted phase-contrast microscopic analysis; assay type: functional, cell-based
MCF7 [14] = assay: Cytotoxicity against human MCF7 cells after 72 hrs by MTT assay; assay type: functional, cell-based; details: for IC50: MCF7, 72 h
MOLT-3 [15] = assay: Cytotoxicity against human MOLT3 cells assessed as morphological changes at 10 uM after 24 hrs by inverted phase-contrast microscopic analysis; assay type: functional, cell-based
U-937 [16] = assay: Induction of apoptosis in human U937 cells assessed as increase in chromatin condensation at 10 uM after 24 hrs by Hoechst staining-based flow cytometric analysis; assay type: functional, cell-based
U-937 [17] = assay: Induction of apoptosis in human U937 cells assessed as increase in apoptotic cells at 10 uM after 24 hrs by propidium iodide staining-based flow cytometric analysis (reference value: 2.3 /- 0.4%); assay type: functional
HL-60 [18] = assay: Cytotoxicity against human HL60 cells after 72 hrs by MTT assay; assay type: functional, cell-based; details: for IC50: HL-60, 72 h
U-937 [19] = assay: Cytotoxicity against human U937 cells assessed as reduction in cell number at 10 uM after 24 hrs by inverted phase-contrast microscopic analysis; assay type: functional, cell-based
U-937 [20] = assay: Induction of apoptosis in human U937 cells assessed as increase in apoptotic cells at 30 uM after 24 hrs by propidium iodide staining-based flow cytometric analysis relative to control; assay type: functional
HL-60 [21] = assay: Induction of apoptosis in human HL60 cells assessed as release of cytochrome c release from mitochondria at 10 to 30 uM after 24 hrs by Western blot analysis; assay type: functional, cell-based
HL-60 [22] = assay: Induction of apoptosis in human HL60 cells assessed as increase in caspase 3/7-mediated cleavage of DEVD-pNA at 30 uM after 24 hrs relative to control; assay type: functional
U-937 [23] = assay: Induction of apoptosis in human U937 cells assessed as increase in caspase 8-mediated cleavage of IETD-pNA at 30 uM after 24 hrs; assay type: functional, cell-based
U-937 [24] = assay: Induction of apoptosis in human U937 cells assessed as increase in caspase 3/7-mediated cleavage of DEVD-pNA at 30 uM after 24 hrs relative to control; assay type: functional
U-937 [25] = assay: Induction of apoptosis in human U937 cells assessed as increase in caspase 9-mediated cleavage of LEHD-pNA at 30 uM after 24 hrs; assay type: functional, cell-based
HL-60 [26] = assay: Induction of apoptosis in human HL60 cells assessed as cleavage of procaspase 7 at 10 to 30 uM after 24 hrs by Western blot analysis; assay type: functional, cell-based
HL-60 [27] = assay: Induction of apoptosis in human HL60 cells assessed as increase in apoptotic cells at 30 uM after 24 hrs by propidium iodide staining-based flow cytometric analysis relative to control; assay type: functional
HL-60 [28] = assay: Induction of apoptosis in human HL60 cells assessed as cleavage of procaspase 9 at 10 to 30 uM after 24 hrs by Western blot analysis; assay type: functional, cell-based
MOLT-3 [29] = assay: Induction of apoptosis in human MOLT3 cells assessed as increase in caspase 9-mediated cleavage of LEHD-pNA at 30 uM after 24 hrs; assay type: functional, cell-based
U-937 [30] = assay: Induction of apoptosis in human U937 cells assessed as change in Bcl-2 protein level at 10 to 30 uM after 24 hrs by Western blot analysis; assay type: functional, cell-based
U-937 [31] = assay: Induction of apoptosis in human U937 cells assessed as release of cytochrome c release from mitochondria at 10 to 30 uM after 24 hrs by Western blot analysis; assay type: functional, cell-based
U-937 [32] = assay: Induction of apoptosis in human U937 cells assessed as cleavage of procaspase 7 at 10 to 30 uM after 24 hrs by Western blot analysis; assay type: functional, cell-based
MOLT-3 [33] = assay: Induction of apoptosis in human MOLT3 cells assessed as increase in caspase 3/7-mediated cleavage of DEVD-pNA at 30 uM after 24 hrs relative to control; assay type: functional
U-937 [34] = assay: Induction of apoptosis in human U937 cells assessed as increase in Bax protein level at 10 to 30 uM after 24 hrs by Western blot analysis; assay type: functional, cell-based
U-937 [35] = assay: Induction of apoptosis in human U937 cells assessed as cleavage of procaspase 6 at 10 to 30 uM after 24 hrs by Western blot analysis; assay type: functional, cell-based
HL-60 [36] = assay: Cell cycle in human HL60 cells at 30 uM after 24 hrs by flow cytometric analysis in presence of 100 uM caspase inhibition Z-VAD-fmk; assay type: functional, cell-based
HL-60 [37] = assay: Induction of apoptosis in human HL60 cells assessed as increase in caspase 9-mediated cleavage of LEHD-pNA at 30 uM after 24 hrs; assay type: functional, cell-based
U-937 [38] = assay: Induction of apoptosis in human U937 cells assessed as cleavage of procaspase 3 at 10 to 30 uM after 24 hrs by Western blot analysis; assay type: functional, cell-based
HL-60 [39] = assay: Induction of apoptosis in human HL60 cells assessed as increase in Bax protein level at 10 to 30 uM after 24 hrs by Western blot analysis; assay type: functional, cell-based
HL-60 [40] = assay: Induction of apoptosis in human HL60 cells assessed as increase in hypodiploid cells at 30 uM after 24 hrs by propidium iodide staining-based flow cytometric analysis in presence of 100 uM caspase inhibition Z-VAD-fmk; assay type: functional, cell-based
HL-60 [41] = assay: Induction of apoptosis in human HL60 cells assessed as cleavage of procaspase 6 at 10 to 30 uM after 24 hrs by Western blot analysis; assay type: functional, cell-based
HL-60 [42] = assay: Induction of apoptosis in human HL60 cells assessed as increase in caspase 8-mediated cleavage of IETD-pNA at 30 uM after 24 hrs; assay type: functional, cell-based
U-937 [43] = assay: Induction of apoptosis in human U937 cells assessed as cleavage of procaspase 9 at 10 to 30 uM after 24 hrs by Western blot analysis; assay type: functional, cell-based
MOLT-3 [44] = assay: Induction of apoptosis in human MOLT3 cells assessed as increase in caspase 8-mediated cleavage of IETD-pNA at 30 uM after 24 hrs; assay type: functional, cell-based
HL-60 [45] = assay: Induction of apoptosis in human HL60 cells assessed as change in Bcl-2 protein level at 10 to 30 uM after 24 hrs by Western blot analysis; assay type: functional, cell-based
HL-60 [46] = assay: Induction of apoptosis in human HL60 cells assessed as decrease in Bid protein level at 10 to 30 uM after 24 hrs by Western blot analysis; assay type: functional, cell-based
HL-60 [47] = assay: Induction of apoptosis in human HL60 cells assessed as cleavage of procaspase 3 at 10 to 30 uM after 24 hrs by Western blot analysis; assay type: functional, cell-based
HL-60 [48] = assay: Induction of apoptosis in human HL60 cells assessed as decrease in ROS level up to 12 hrs by H2-DCF-DA dye-based flow cytometric analysis; assay type: functional, cell-based
U-937 [49] = assay: Induction of apoptosis in human U937 cells assessed as decrease in Bid protein level at 10 to 30 uM after 24 hrs by Western blot analysis; assay type: functional, cell-based

CC(C)[C@H]1CC[C@H](C)C[C@@H]1O[C@H]1O[C@H](CO[C@@H]2O[C@H](COC(=O)c3ccc(Br)cc3)[C@@H](OC(=O)c3ccc(Br)cc3)[C@H](O)[C@H]2O)[C@@H](O)[C@H](O)[C@H]1O
Activity (HL-60 [1]): Active | Activity (U-937 [2]): Active | Activity (HL-60 [3]): Active | Activity (MOLT-3 [4]): Active | Activity (MOLT-3 [5]): Active | Activity (MOLT-3 [6]): Active | Activity (HL-60 [7]): Active | Activity (MCF7 [8]): Active | Activity (U-937 [9]): Dose-dependent effect | IC50 (U-937 [9]): 6.9 µM | Activity (MOLT-3 [10]): 69.5% | Activity (U-937 [11]): Active | Activity (MOLT-3 [12]): Dose-dependent effect | IC50 (MOLT-3 [12]): 5.8 µM | Activity (HL-60 [13]): Active | Activity (MCF7 [14]): Dose-dependent effect | IC50 (MCF7 [14]): 6.1 µM | Activity (MOLT-3 [15]): Active | Activity (U-937 [16]): Active | Activity (U-937 [17]): 46% | Activity (HL-60 [18]): Dose-dependent effect | IC50 (HL-60 [18]): 7.3 µM | Activity (U-937 [19]): Active

CC(C)[C@H]1CC[C@H](C)C[C@@H]1O[C@@H]1O[C@H](CO[C@@H]2O[C@H](COC(=O)c3ccc(Br)cc3)[C@@H](OC(=O)c3ccc(Br)cc3)[C@H](O)[C@H]2O)[C@@H](O)[C@H](O)[C@H]1O
Activity (U-937 [20]): 23.2% | Activity (HL-60 [21]): Active | fold change (FC) (HL-60 [22]): >7 | Activity (HL-60 [1]): Active | Activity (U-937 [23]): Active | fold change (FC) (U-937 [24]): >7 | Activity (U-937 [2]): Active | Activity (U-937 [25]): Active | Activity (HL-60 [3]): Active | Activity (HL-60 [26]): Active | Activity (HL-60 [27]): 56.9% | Activity (MOLT-3 [4]): Active | Activity (MOLT-3 [5]): Active | Activity (HL-60 [28]): Active | Activity (MOLT-3 [29]): Active | Activity (U-937 [30]): inactive | Activity (U-937 [31]): Active | Activity (U-937 [32]): Active | Activity (MOLT-3 [6]): Active | Activity (HL-60 [7]): Active | Activity (MCF7 [8]): Active | Activity (U-937 [9]): Dose-dependent effect | IC50 (U-937 [9]): 14.1 µM | fold change (FC) (MOLT-3 [33]): >7 | Activity (U-937 [11]): Active | Activity (MOLT-3 [12]): Dose-dependent effect | IC50 (MOLT-3 [12]): 12.6 µM | Activity (HL-60 [13]): Active | Activity (U-937 [34]): Active | Activity (U-937 [35]): Active | Activity (HL-60 [36]): inactive | Activity (HL-60 [37]): Active | Activity (U-937 [38]): Active | Activity (HL-60 [39]): Active | Activity (MCF7 [14]): Dose-dependent effect | IC50 (MCF7 [14]): 16 µM | Activity (HL-60 [40]): inactive | Activity (HL-60 [41]): Active | Activity (HL-60 [42]): Active | Activity (U-937 [43]): Active | Activity (MOLT-3 [44]): Active | Activity (MOLT-3 [15]): Active | Activity (HL-60 [45]): inactive | Activity (U-937 [16]): Active | Activity (HL-60 [46]): Active | Activity (HL-60 [47]): Active | Activity (HL-60 [18]): Dose-dependent effect | IC50 (HL-60 [18]): 14.9 µM | Activity (U-937 [19]): Active | Activity (HL-60 [48]): inactive | Activity (U-937 [49]): Active
